PubChem BioAssay (NCI)
Where “and” joins values, the source holds several entries; their conditions need not be identical. Equal entries are not always repeated.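 Tested at 5 concentrations; 48 h exposure; 96-well plates; endpoints linearly interpolated, else capped at highest concentration. Abbreviation: GI50, concentration required for 50% inhibition of growth. Definition used: TGI = concentration required for complete inhibition of growth.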

How the values were obtained:
Assay in all cases: growth of human tumour cells (NCI), 48 h
[1] = test system: SNB-75 CNS
[2] = test system: NCI/ADR-RES ovarian
[3] = test system: HL-60(TB) leukemia
[4] = test system: SK-MEL-2 melanoma
[5] = test system: CAKI-1 renal
[6] = test system: HCC-2998 colon
[7] = test system: NCI-H460 lung
[8] = test system: MDA-MB-231 breast
[9] = test system: OVCAR-3 ovarian
[10] = test system: HT29 colon

Compound	GI50 [1]	TGI [1] [µM]	GI50 [2]	TGI [2]	GI50 [3]	TGI [3]	GI50 [4]	TGI [4]	GI50 [5]	TGI [5]	GI50 [6]	TGI [6]	GI50 [7]	TGI [7]	GI50 [8]	TGI [8]	GI50 [9]	TGI [9]	GI50 [10]	TGI [10]
c1ccc(Oc2c3ccccc3nc3ccccc23)cc1	3.49 µM	14.2	7.32 µM	27 µM	0.541 µM	5.79 µM	3.95 µM	17.6 µM	6.07 µM	19.5 µM	2.87 µM	7.97 µM	3.29 µM	10.3 µM	3.08 µM	9.82 µM	3.41 µM	13.2 µM	0.48 µM	2.83 µM
O=C1NC(=O)[C@@H](c2cn3c4c(cccc24)CCC3)[C@@H]1c1c[nH]c2ccccc12	0.348 µM and 0.198 µM	–	0.327 µM and 0.369 µM	> 4.71 µM and 9.55 µM	0.348 µM and 0.35 µM	> 4.06 µM and 6.88 µM	0.37 µM and 0.57 µM	> 10 µM and 20.8 µM	0.332 µM and 0.518 µM	> 10 µM and 31.4 µM	0.59 µM and 0.49 µM	> 10 µM and 5.82 µM	0.365 µM and 0.372 µM	> 10 µM and 8.55 µM	0.632 µM and 1.19 µM	8.12 µM and 9.86 µM	0.273 µM and 0.28 µM	> 2.22 µM and 0.789 µM	0.312 µM and 0.321 µM	> 4.4 µM and 1.57 µM
CCN(CC)c1ccc2[nH]c3c(C(N)=O)cc(=O)c(=O)c=3oc2c1	2.04 µM	8.59	1.72 µM	11.8 µM	1.66 µM	5.08 µM	1.65 µM	6.1 µM	1.09 µM	3.44 µM	–	–	1.34 µM	12.6 µM	2.9 µM	> 100 µM	0.68 µM	4.3 µM	2.97 µM	12.9 µM
O=C(CCl)Nc1ccccc1SCc1cc(Cl)cc2c1OCOC2	8.55 µM	23.3	17.5 µM	84.8 µM	2.15 µM	4.31 µM	11.4 µM	24.8 µM	5.5 µM	32.6 µM	16.6 µM	31.5 µM	18.4 µM	38.1 µM	5.97 µM	28 µM	2.08 µM	4.24 µM	4.27 µM	14.5 µM
COc1cc(/C=C2\CC(C)CC3C2=NN(c2ccccc2)C3c2cc(OC)c(OC)c(OC)c2)cc(OC)c1OC (stereo unspecified)	25.4 µM	87.5	12.1 µM	> 100 µM	6.48 µM	90.6 µM	15.6 µM	93 µM	26.7 µM	> 100 µM	17.9 µM	37.5 µM	11.1 µM	28.4 µM	14.4 µM	71 µM	14.1 µM	> 100 µM	11.1 µM	39.9 µM
O=C(CSc1nc2ccc([N+](=O)[O-])cc2[nH]1)Nc1cccc(C(F)(F)F)c1	1.61 µM	7.81	2.29 µM	8.75 µM	2.57 µM	8.33 µM	1.96 µM	5.99 µM	1.76 µM	7.15 µM	2.8 µM	12.2 µM	2.88 µM	11.3 µM	2.13 µM	6.65 µM	1.66 µM	11 µM	2.78 µM	11.3 µM
C[C@@H](Oc1cc(-c2cnn(C3CCNCC3)c2)cnc1N)c1c(Cl)ccc(F)c1Cl	–	–	7.38 µM	> 10 µM	0.398 µM	1.9 µM	1.82 µM	4.54 µM	3.39 µM	> 10 µM	2.28 µM	> 10 µM	0.662 µM	9.32 µM	1.17 µM	6.5 µM	3.26 µM	> 10 µM	0.437 µM	2.31 µM
COc1cccc(-c2nc(-c3ccc(NS(=O)(=O)c4ccccc4)cc3)[nH]c2-c2ccnc(Br)c2)c1	1.92 µM	> 100	3.44 µM	> 100 µM	2.86 µM	> 100 µM	2.5 µM	6.62 µM	1.75 µM	5.63 µM	2.12 µM	4.71 µM	2.85 µM	8.71 µM	3.23 µM	45.8 µM	3.03 µM	17.7 µM	3.02 µM	> 100 µM
Cc1ccc(C)c(-n2c(-c3ccc(Br)cc3)csc2=NC(=O)c2ccccc2F)c1	> 100 µM	> 100	> 100 µM	> 100 µM	2.82 µM	> 100 µM	> 100 µM	> 100 µM	–	–	> 100 µM	> 100 µM	–	–	> 100 µM	> 100 µM	> 100 µM	> 100 µM	–	–
O=C(O)CSCC(=O)c1ccccc1	–	> 100	–	> 100 µM	–	> 100 µM	–	> 100 µM	–	> 100 µM	–	–	–	> 100 µM	–	> 100 µM	–	> 100 µM	–	> 100 µM
COc1cccc2c(Nc3ccc(C(=O)NCCNCCO)cc3)cc(-c3ccccc3)nc12	–	34.9	> 100 µM	> 100 µM	26.6 µM	99.2 µM	19.5 µM	40.8 µM	> 100 µM	> 100 µM	49.6 µM	> 100 µM	–	–	25.5 µM	73.5 µM	39.2 µM	> 100 µM	36 µM	> 100 µM
COc1cc2c3c(n(CCCO)c(=O)c2cc1OC)-c1cc2c(cc1C3=O)OCO2	16.1 µM	> 79.1	3.95 µM	> 53.4 µM	2.34 µM	10.4 µM	31.9 µM	> 100 µM	0.465 µM	> 19.6 µM	–	–	0.845 µM	> 100 µM	23.4 µM	> 76.6 µM	21.6 µM	> 81.9 µM	> 46.5 µM	> 100 µM
C=C(CN1CCc2ccccc2C1)c1ccc(/C=C/C(=O)Nc2ccccc2N)cc1	–	–	4.27 µM	> 100 µM	4.28 µM	76.8 µM	7.51 µM	> 100 µM	2.21 µM	94.5 µM	2.04 µM	34.5 µM	3.18 µM	38.1 µM	4.36 µM	48.3 µM	5.59 µM	51 µM	59.9 µM	> 100 µM
